According to publication PMC11921695 (BMC Cancer, 2025):

System: patients with HIV-associated KS

Cn1cnc2c(F)c(Nc3ccc(Br)cc3Cl)c(C(=O)NOCCO)cc21 [selumetinib, 6-(4-Bromo-2-chloro-phenylamino)-7-fluro-3-methyl-3 H-benzoimidazole-5-carboxylic acid (2-hydroxy-ethoxy)-amide hydrogen sulphate]
14: Investigations: Adverse Reactions Grade 1 N (N = patients, any dose)
360: AEs graded 1 or 2 (number of events)
3 (19%): Albumin Decreased: Number of patients experiencing at least one grade <2AE (n (%) of 16 patients) | Vomiting: Number of patients experiencing at least one grade <2AE (n (%) of 16 patients)
six: grade 3 AEs (non-serious) (number of events, in five separate patients)
3: Blood and lymphatic system disorders: Adverse Reactions Grade 1 N (N = patients, any dose) | Eye disorders: Adverse Events Grade 2 N (N = patients, any dose) | Eye disorders: Adverse Reactions Grade 2 N (N = patients, any dose) | Infections and infestations: Adverse Reactions Grade 2 N (N = patients, any dose) | Investigations: Adverse Reactions Grade 2 N (N = patients, any dose) | Psychiatric disorders: Adverse Events Grade 1 N (N = patients, any dose) | Psychiatric disorders: Adverse Reactions Grade 1 N (N = patients, any dose) | Skin and subcutaneous tissue disorders: Adverse Events Grade3 N (N = patients, any dose) | Skin and subcutaneous tissue disorders: Adverse Reactions Grade 3 N (N = patients, any dose)
one: serious adverse event (SAE), unrelated to study treatment (number)
11: General disorders and administration site conditions: Adverse Events Grade 1 N (N = patients, any dose)
9: Skin and subcutaneous tissue disorders: Adverse Events Grade 2 N (N = patients, any dose) | Skin and subcutaneous tissue disorders: Adverse Reactions Grade 2 N (N = patients, any dose)
7 (44%): AST Increased: Number of patients experiencing at least one grade <2AE (n (%) of 16 patients) | Nausea: Number of patients experiencing at least one grade <2AE (n (%) of 16 patients) | Red Blood Cell Count Decreased: Number of patients experiencing at least one grade <2AE (n (%) of 16 patients)
5 (31%): ALT Increased: Number of patients experiencing at least one grade <2AE (n (%) of 16 patients)
5: Eye disorders: Adverse Reactions Grade 1 N (N = patients, any dose) | General disorders and administration site conditions: Adverse Events Grade 2 N (N = patients, any dose) | Metabolism and nutrition disorders: Adverse Events Grade 1 N (N = patients, any dose) | Metabolism and nutrition disorders: Adverse Reactions Grade 1 N (N = patients, any dose)
98%: AEs categorised as grade 1 or 2 (of the further 366 AEs)
6: Eye disorders: Adverse Events Grade 1 N (N = patients, any dose) | Gastrointestinal disorders: Adverse Reactions Grade 2 N (N = patients, any dose)
15: Investigations: Adverse Events Grade 1 N (N = patients, any dose)
0: Blood and lymphatic system disorders: Adverse Events Grade3 N (N = patients, any dose) | Blood and lymphatic system disorders: Adverse Reactions Grade 3 N (N = patients, any dose) | Cardiac disorders: Adverse Events Grade 2 N (N = patients, any dose) | Cardiac disorders: Adverse Events Grade3 N (N = patients, any dose) | Cardiac disorders: Adverse Reactions Grade 1 N (N = patients, any dose) | Cardiac disorders: Adverse Reactions Grade 2 N (N = patients, any dose) | Cardiac disorders: Adverse Reactions Grade 3 N (N = patients, any dose) | Eye disorders: Adverse Events Grade3 N (N = patients, any dose) | Eye disorders: Adverse Reactions Grade 3 N (N = patients, any dose) | Gastrointestinal disorders: Adverse Events Grade3 N (N = patients, any dose) | Gastrointestinal disorders: Adverse Reactions Grade 3 N (N = patients, any dose) | General disorders and administration site conditions: Adverse Reactions Grade 3 N (N = patients, any dose) | Infections and infestations: Adverse Events Grade3 N (N = patients, any dose) | Infections and infestations: Adverse Reactions Grade 3 N (N = patients, any dose) | Injury, poisoning and procedural complications: Adverse Events Grade3 N (N = patients, any dose) | Injury, poisoning and procedural complications: Adverse Reactions Grade 1 N (N = patients, any dose) | Injury, poisoning and procedural complications: Adverse Reactions Grade 2 N (N = patients, any dose) | Injury, poisoning and procedural complications: Adverse Reactions Grade 3 N (N = patients, any dose) | Investigations: Adverse Reactions Grade 3 N (N = patients, any dose) | Metabolism and nutrition disorders: Adverse Events Grade 2 N (N = patients, any dose) | Metabolism and nutrition disorders: Adverse Events Grade3 N (N = patients, any dose) | Metabolism and nutrition disorders: Adverse Reactions Grade 2 N (N = patients, any dose) | Metabolism and nutrition disorders: Adverse Reactions Grade 3 N (N = patients, any dose) | Musculoskeletal and connective tissue disorders: Adverse Events Grade 2 N (N = patients, any dose) | Musculoskeletal and connective tissue disorders: Adverse Events Grade3 N (N = patients, any dose) | Musculoskeletal and connective tissue disorders: Adverse Reactions Grade 2 N (N = patients, any dose) | Musculoskeletal and connective tissue disorders: Adverse Reactions Grade 3 N (N = patients, any dose) | Nervous system disorders: Adverse Events Grade 2 N (N = patients, any dose) | Nervous system disorders: Adverse Events Grade3 N (N = patients, any dose) | Nervous system disorders: Adverse Reactions Grade 2 N (N = patients, any dose) | Nervous system disorders: Adverse Reactions Grade 3 N (N = patients, any dose) | Psychiatric disorders: Adverse Events Grade 2 N (N = patients, any dose) | Psychiatric disorders: Adverse Events Grade3 N (N = patients, any dose) | Psychiatric disorders: Adverse Reactions Grade 2 N (N = patients, any dose) | Psychiatric disorders: Adverse Reactions Grade 3 N (N = patients, any dose) | Renal and urinary disorders: Adverse Events Grade 2 N (N = patients, any dose) | Renal and urinary disorders: Adverse Events Grade3 N (N = patients, any dose) | Renal and urinary disorders: Adverse Reactions Grade 2 N (N = patients, any dose) | Renal and urinary disorders: Adverse Reactions Grade 3 N (N = patients, any dose) | Respiratory, thoracic and mediastinal disorders: Adverse Events Grade3 N (N = patients, any dose) | Respiratory, thoracic and mediastinal disorders: Adverse Reactions Grade 3 N (N = patients, any dose) | Vascular disorders: Adverse Events Grade 2 N (N = patients, any dose) | Vascular disorders: Adverse Events Grade3 N (N = patients, any dose) | Vascular disorders: Adverse Reactions Grade 1 N (N = patients, any dose) | Vascular disorders: Adverse Reactions Grade 2 N (N = patients, any dose) | Vascular disorders: Adverse Reactions Grade 3 N (N = patients, any dose)
two: serious adverse reactions (SARs) (number)
1: Blood and lymphatic system disorders: Adverse Reactions Grade 2 N (N = patients, any dose) | Cardiac disorders: Adverse Events Grade 1 N (N = patients, any dose) | General disorders and administration site conditions: Adverse Events Grade3 N (N = patients, any dose) | Infections and infestations: Adverse Reactions Grade 1 N (N = patients, any dose) | Injury, poisoning and procedural complications: Adverse Events Grade 2 N (N = patients, any dose) | Renal and urinary disorders: Adverse Reactions Grade 1 N (N = patients, any dose) | Respiratory, thoracic and mediastinal disorders: Adverse Events Grade 2 N (N = patients, any dose) | Respiratory, thoracic and mediastinal disorders: Adverse Reactions Grade 2 N (N = patients, any dose)
366: further AEs reported (human, in vivo)
4: Infections and infestations: Adverse Events Grade 2 N (N = patients, any dose) | Investigations: Adverse Events Grade 2 N (N = patients, any dose) | Musculoskeletal and connective tissue disorders: Adverse Events Grade 1 N (N = patients, any dose) | Nervous system disorders: Adverse Events Grade 1 N (N = patients, any dose) | Nervous system disorders: Adverse Reactions Grade 1 N (N = patients, any dose) | Respiratory, thoracic and mediastinal disorders: Adverse Events Grade 1 N (N = patients, any dose) | Respiratory, thoracic and mediastinal disorders: Adverse Reactions Grade 1 N (N = patients, any dose)
69%: AEs deemed as ARs (of the further 366 AEs)
9 (56%): CPK Increased: Number of patients experiencing at least one grade <2AE (n (%) of 16 patients) | Fatigue: Number of patients experiencing at least one grade <2AE (n (%) of 16 patients)
2: General disorders and administration site conditions: Adverse Reactions Grade 2 N (N = patients, any dose) | Infections and infestations: Adverse Events Grade 1 N (N = patients, any dose) | Injury, poisoning and procedural complications: Adverse Events Grade 1 N (N = patients, any dose) | Investigations: Adverse Events Grade3 N (N = patients, any dose) | Musculoskeletal and connective tissue disorders: Adverse Reactions Grade 1 N (N = patients, any dose) | Renal and urinary disorders: Adverse Events Grade 1 N (N = patients, any dose) | Vascular disorders: Adverse Events Grade 1 N (N = patients, any dose)
7: Gastrointestinal disorders: Adverse Events Grade 2 N (N = patients, any dose)
12: Gastrointestinal disorders: Adverse Events Grade 1 N (N = patients, any dose) | Gastrointestinal disorders: Adverse Reactions Grade 1 N (N = patients, any dose)
10: General disorders and administration site conditions: Adverse Reactions Grade 1 N (N = patients, any dose) | Skin and subcutaneous tissue disorders: Adverse Events Grade 1 N (N = patients, any dose) | Skin and subcutaneous tissue disorders: Adverse Reactions Grade 1 N (N = patients, any dose)
